The data set is described as follows: recombinant barcode read abundance after kanamycin selection (control-corrected) (log10(CPM+1)); higher = more efficient recombination; sequences stand for … in AGTGCAGAGAAAATCGGCCAGTTTTCTCTGCCTGCAGTCCGCATGCCGT…AGATTTATGCAGCGGACTGCCTTTCTCCCAAAGTGATAAACCGGACAGTATCATGGACCGGTTTTCCCGGTAATCCGTATTTGCAAGGTTGGTTTCACT; site = the 11-nt target. On the procedure:
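Pooled E. coli target-specificity screen for the IS621 bridge recombinase. Each library plasmid pairs an 11-nt target (CT core) with a bridge RNA whose target-binding loop (9-nt LTG + 4-nt RTG) is reprogrammed; the rest of the 177-nt WT IS621 bridge RNA scaffold is fixed. The plasmid is co-electroporated with a WT donor plasmid; recombinase is induced with 0.1 mM IPTG and recombinants are selected on kanamycin. Recombinant barcodes are sequenced, converted to CPM, averaged over two biological replicates and corrected by the unselected control CPM. Molecule = full bridge RNA written as DNA: LTG = specificity nt 1-9, RTG = reverse complement of specificity nt 8-11, in the WT scaffold.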
Regarding “ACATGTACTTGGGTTCTAACCTGTTGCTG (site ACATGTACTCG)”, the “recombinant barcode read abundance (log10)” value was determined as 0.182.
Consider “ACATTGCCTTGGGTTCTAACCTGTTGCCT (site ACATTGCCTAG)”, for which the “recombinant barcode read abundance (log10)” value worked out at 0.44.
Regarding “ACATTGCCTTGGGTTCTAACCTGTTGCCT (site ACCTTGCCTAG)”, the “recombinant barcode read abundance (log10)” value turned out to be 0.0938.
With “ACATTGCCTTGGGTTCTAACCTGTTGCCT (site ACGTTGCCTAG)” the figure was 0.732; with “ACATTGCCTTGGGTTCTAACCTGTTGCCT (site ACTTTGCCTAG)”, 0.
Turning to “ACCAAGTCTTGGGTTCTAACCTGTTGCGC (site ACCAAGTCTAC)”, the “recombinant barcode read abundance (log10)” value came out at 0.251.
Take “ACCAAGTCTTGGGTTCTAACCTGTTGCGC (site ACCAAGTCTGC)”: the “recombinant barcode read abundance (log10)” value came to 1.74.
With “ACCACAGCTTGGGTTCTAACCTGTTGCCT (site ACCAAAGCTTG)” the figure was 0.16.
With “ACCACAGCTTGGGTTCTAACCTGTTGCCT (site ACCACAGCTAG)” the figure was 0.283; with “ACCAGATCTTGGGTTCTAACCTGTTGCCT (site ACCAGATCTAG)”, 0.846.
With “ACCAGATCTTGGGTTCTAACCTGTTGCCT (site TCCAGCTCTAG)” the figure was 0.152.
For the sequence “ACCCAGCCTTGGGTTCTAACCTGTTGCAG (site ACCCAGCCTCT)”, the “recombinant barcode read abundance (log10)” value stood at 2.27.
For “ACCCAGCCTTGGGTTCTAACCTGTTGCAG (site TGAGTCTCTTG)” the value was 0.0203.
With “ACCCAGCCTTGGGTTCTAACCTGTTGCAT (site ACCCAGCCTAA)” the figure was 1.4.
For “ACCCAGCCTTGGGTTCTAACCTGTTGCAT (site ACCCAGCCTAC)” the value was 0.265; for “ACCCAGCCTTGGGTTCTAACCTGTTGCAT (site ACCCAGCCTAG)”, 0.68.
Regarding “ACCCAGCCTTGGGTTCTAACCTGTTGCAT (site ACCCAGCCTAT)”, the “recombinant barcode read abundance (log10)” value was found to be 2.45.
“ACCCAGCCTTGGGTTCTAACCTGTTGCTT (site ACCCAGCCTAA)”: the “recombinant barcode read abundance (log10)” value was 1.77.
For “ACCCAGCCTTGGGTTCTAACCTGTTGCTT (site ACCCAGCCTAC)” the value was 0.278; for “ACCCAGCCTTGGGTTCTAACCTGTTGCTT (site ACCCAGCCTAG)”, 0.758.
With “ACCCAGCCTTGGGTTCTAACCTGTTGCTT (site ACCCAGCCTAT)” the figure was 1.41; with “ACCCGTACTTGGGTTCTAACCTGTTGCCT (site ACCAGTACTAG)”, 0.063; with “ACCCGTACTTGGGTTCTAACCTGTTGCCT (site ACCCGTACTAG)”, 1.26.
For the sequence “ACCCGTACTTGGGTTCTAACCTGTTGCCT (site ACCGGTACTAG)”, the “recombinant barcode read abundance (log10)” value was 0.0386.
With “ACCCGTACTTGGGTTCTAACCTGTTGCCT (site ACCTGTACTAG)” the figure was 0.485; with “ACCCGTCCTTGGGTTCTAACCTGTTGCAG (site ACCCGTCCTCT)”, 2.67; with “ACCCGTCCTTGGGTTCTAACCTGTTGCAG (site GGCCGTCCTCT)”, 0.051.
With “ACCCTAGCTTGGGTTCTAACCTGTTGCCA (site ACCCTAGCTTG)” the figure was 1.52; with “ACCCTAGCTTGGGTTCTAACCTGTTGCCA (site ATCGTAGCTTG)”, 0.0661.
With “ACCCTAGCTTGGGTTCTAACCTGTTGCTC (site AACCTAGCTTA)” the figure was 0.191; with “ACCCTAGCTTGGGTTCTAACCTGTTGCTC (site ACCCTAGCTGA)”, 1.95; with “ACCCTATCTTGGGTTCTAACCTGTTGCTT (site ACCCTATCTAA)”, 0.944.
As to “ACCCTATCTTGGGTTCTAACCTGTTGCTT (site ACTCTGTCTAA)”, the “recombinant barcode read abundance (log10)” value amounted to 0.114.
For “ACCGACCCTTGGGTTCTAACCTGTTGCAT (site ACCGACCCTAT)” the value was 1.67; for “ACCGACCCTTGGGTTCTAACCTGTTGCAT (site TAGTTTGCTCG)”, 0.401; for “ACCGCGTCTTGGGTTCTAACCTGTTGCAT (site ACCGCGTCTAT)”, 0.521.
For “ACCGCGTCTTGGGTTCTAACCTGTTGCAT (site TTGATAGCTTA)” the value was 0.0509.
“ACCGCTCCTTGGGTTCTAACCTGTTGCCT (site AACGCTCCTAG)”: the “recombinant barcode read abundance (log10)” value is 0.0208.
For “ACCGCTCCTTGGGTTCTAACCTGTTGCCT (site ACCGCTCCTAG)” the value was 0.297; for “ACCGCTCCTTGGGTTCTAACCTGTTGCCT (site AGCGCTCCTAG)”, 0.0225; for “ACCGCTCCTTGGGTTCTAACCTGTTGCCT (site ATCGCTCCTAG)”, 0.0271.
Turning to “ACCTACCCTTGGGTTCTAACCTGTTGCCT (site ACATACACTAG)”, the “recombinant barcode read abundance (log10)” value was found to be 0.136.
With “ACCTACCCTTGGGTTCTAACCTGTTGCCT (site ACCTACCCTAG)” the figure was 1.14; with “ACCTACGCTTGGGTTCTAACCTGTTGCCT (site ACCTACGCTAG)”, 1.01; with “ACCTACGCTTGGGTTCTAACCTGTTGCCT (site ACCTACTCTAG)”, 0.23.
Take “ACCTACTCTTGGGTTCTAACCTGTTGCTT (site ACCTACTCTAA)”: the “recombinant barcode read abundance (log10)” value is 1.33.
As to “ACCTACTCTTGGGTTCTAACCTGTTGCTT (site AGCTACCCTAA)”, the “recombinant barcode read abundance (log10)” value is 0.315.
Regarding “ACCTCGGCTTGGGTTCTAACCTGTTGCTG (site ACCTCGGCTCA)”, the “recombinant barcode read abundance (log10)” value was 0.399.
For “ACCTCGGCTTGGGTTCTAACCTGTTGCTG (site TGGCAATCTAG)” the value was 0.0759; for “ACCTTAGCTTGGGTTCTAACCTGTTGCTT (site ACCTTAGCTAA)”, 0.297.
For “ACCTTAGCTTGGGTTCTAACCTGTTGCTT (site TAGGCGACTTG)” the value was 0.0735; for “ACCTTGTCTTGGGTTCTAACCTGTTGCTA (site ACCTTGTCTTA)”, 0.777; for “ACCTTGTCTTGGGTTCTAACCTGTTGCTA (site GCCATGTCTTA)”, 0.0578.
For “ACGAAGGCTTGGGTTCTAACCTGTTGCCT (site ACGAAGGCTAG)” the value was 0.696.
On to “ACGAAGGCTTGGGTTCTAACCTGTTGCCT (site ACGAAGGCTCG)”, for which the “recombinant barcode read abundance (log10)” value was found to be 0.0407.
For “ACGAGCGCTTGGGTTCTAACCTGTTGCCT (site ACGAACGCTAG)” the value was 0.132; for “ACGAGCGCTTGGGTTCTAACCTGTTGCCT (site ACGACCGCTAG)”, 0.0589.
With “ACGAGCGCTTGGGTTCTAACCTGTTGCCT (site ACGAGCGCTAG)” the figure was 1.54; with “ACGAGCGCTTGGGTTCTAACCTGTTGCCT (site ACGATCGCTAG)”, 0.0598.
Turning to “ACGAGCTCTTGGGTTCTAACCTGTTGCTG (site ACGAGCTCTCA)”, the “recombinant barcode read abundance (log10)” value worked out at 1.84.
Regarding “ACGAGCTCTTGGGTTCTAACCTGTTGCTG (site CCGCGCTCTCA)”, the “recombinant barcode read abundance (log10)” value stood at 0.0264.
For “ACGAGTACTTGGGTTCTAACCTGTTGCTG (site ACGAGTACTCA)” the value was 1.02.
With “ACGAGTACTTGGGTTCTAACCTGTTGCTG (site ACGAGTACTCC)” the figure was 0.662; with “ACGAGTCCTTGGGTTCTAACCTGTTGCGT (site ACGAGTCCTAC)”, 2.6; with “ACGAGTCCTTGGGTTCTAACCTGTTGCGT (site ACGAGTCCTAG)”, 0.202.
For “ACGCAATCTTGGGTTCTAACCTGTTGCCT (site ACGCAATCTAG)” the value was 0.0303.
With “ACGCAATCTTGGGTTCTAACCTGTTGCCT (site ACGCACTCTAG)”, the “recombinant barcode read abundance (log10)” value is 0.0895.
As to “ACGCAATCTTGGGTTCTAACCTGTTGCCT (site ACGCAGTCTAG)”, the “recombinant barcode read abundance (log10)” value is 0.131.
With “ACGCAATCTTGGGTTCTAACCTGTTGCCT (site ACGCATTCTAG)” the figure was 0.157; with “ACGCACTCTTGGGTTCTAACCTGTTGCCG (site ACGCACTCTCG)”, 0.646.
With “ACGCACTCTTGGGTTCTAACCTGTTGCCG (site GATGGTACTAT)” the figure was 0.0148; with “ACGCATTCTTGGGTTCTAACCTGTTGCCT (site ACGCAATCTAG)”, 0.0565; with “ACGCATTCTTGGGTTCTAACCTGTTGCCT (site ACGCACTCTAG)”, 0.123.

Source of the values: the supplement of paper PMC11208160.
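Note: IS621 recombinase and bridge RNA in Escherichia coli cells.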
